Experimental findings from US12617783B2, “Heterocyclic GLP-1R agonists” (BIOMEA FUSION, INC., priority 2024, dated 2026) are described below.

Structures are written as SMILES.

The target of the experiment is T1, human GLP-1R (Homo sapiens, UniProt P43220).
T1 construct: host or cells: HEK293
T1 sequence (P43220 24-463): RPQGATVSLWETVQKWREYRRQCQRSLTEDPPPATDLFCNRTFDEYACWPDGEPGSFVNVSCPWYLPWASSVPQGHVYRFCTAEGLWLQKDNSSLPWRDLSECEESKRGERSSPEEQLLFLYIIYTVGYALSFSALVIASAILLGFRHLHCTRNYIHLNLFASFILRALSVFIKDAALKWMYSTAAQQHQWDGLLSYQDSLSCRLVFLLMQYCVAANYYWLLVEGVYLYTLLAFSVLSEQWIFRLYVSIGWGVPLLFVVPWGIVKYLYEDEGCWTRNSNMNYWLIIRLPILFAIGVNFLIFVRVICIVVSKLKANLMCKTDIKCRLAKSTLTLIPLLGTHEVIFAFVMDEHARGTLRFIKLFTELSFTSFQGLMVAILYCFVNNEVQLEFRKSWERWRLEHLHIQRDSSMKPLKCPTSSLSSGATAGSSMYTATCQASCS
Nature of the experiment: GLP-1R cAMP assay (Example B1a, HTRF, 30 min at room temperature). The class given is cell-based. Particulars: cAMP accumulation in HEK293 expressing human GLP-1R, no BETP, 30 min room temperature (Method B1a, compounds ID 1-609), Table 1; read-out: EC50. An outline of the steps:
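Competitive HTRF read-out of cAMP after 30 min room-temperature stimulation, BETP absent, of human GLP-1R-HEK293 cells (1,000/well) in HEPES buffer with 500 μM IBMX and 0.1% BSA. Activation normalised to GLP-1(7-37) positive control. EC50 from 4-parameter non-linear regression.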
In general terms: cAMP levels reflect the balance of adenylyl cyclase and phosphodiesterase activity.
Broadly, the EC50 is the concentration at which the effect is half-maximal. With `Cc1cc(-n2nc3c(c2-n2ccn(-c4ccc5c(cnn5C)c4F)c2=O)[C@H](C)N(C(=O)c2cc4cc([C@H]5CCOC(C)(C)C5)ccc4n2[C@@]2(c4noc(=O)[nH]4)C[C@@H]2C)CCC3)cc(C)c1F` [Compound 518, 3-[(1S,2S)-1-[5-[(4S)-2,2-dimethyltetrahydropyran-4-yl]-2-[(4S)-2-(4-fluoro-3,5-dimethyl-phenyl)-3-[3-(4-fluoro-1-methyl-indazol-5-yl)-2-oxo-imidazol-1-yl]-4-methyl-4,6,7,8-tetrahydropyrazolo[4,3-c]azepine-5-carbonyl]indol-1-yl]-2-methyl-cyclopropyl]-4H-1,2,4-oxadiazol-5-one], the EC50 amounted to 73.5 nM.

As for `Cc1cc(-n2nc3c(c2-n2ccn(-c4ccc5c(cnn5C)c4F)c2=O)[C@@H]2CC[C@H](C3)N2C(=O)c2cc3cc([C@H]4CCOC5(CC5)C4)ccc3n2[C@]2(c3noc(=O)[nH]3)C[C@H]2C)cc(C)c1F` [Compound 519, 3-[(1R,2R)-1-[2-[(1S,8R)-4-(4-fluoro-3,5-dimethyl-phenyl)-3-[3-(4-fluoro-1-methyl-indazol-5-yl)-2-oxo-imidazol-1-yl]-4,5,11-triazatricyclo[6.2.1.02,6]undeca-2,5-diene-11-carbonyl]-5-[(7S)-4-oxaspiro[2.5]octan-7-yl]indol-1-yl]-2-methyl-cyclopropyl]-4H-1,2,4-oxadiazol-5-one], the EC50 is at least 10000 nM.

Regarding `Cc1cc(-n2nc3c(c2-n2ccn(-c4ccc5c(cnn5C)c4F)c2=O)[C@H]2CC[C@@H](C3)N2C(=O)c2cc3cc([C@H]4CCOC5(CC5)C4)ccc3n2[C@]2(c3noc(=O)[nH]3)C[C@H]2C)cc(C)c1F` [Compound 520, 3-[(1R,2R)-1-[2-[(1R,8S)-4-(4-fluoro-3,5-dimethyl-phenyl)-3-[3-(4-fluoro-1-methyl-indazol-5-yl)-2-oxo-imidazol-1-yl]-4,5,11-triazatricyclo[6.2.1.02,6]undeca-2,5-diene-11-carbonyl]-5-[(7S)-4-oxaspiro[2.5]octan-7-yl]indol-1-yl]-2-methyl-cyclopropyl]-4H-1,2,4-oxadiazol-5-one], the EC50 was at least 10000 nM.

Regarding `Cc1cc(-n2nc3c(c2-n2ccn(-c4ccc5cnncc5c4F)c2=O)CN(C(=O)c2cc4cc([C@H]5CCOC(C)(C)C5)ccc4n2[C@@]2(c4noc(=O)[nH]4)C[C@@H]2C)CCC3)cc(C)c1F` [Compound 521, 3-[(1S,2S)-1-[5-[(4S)-2,2-dimethyltetrahydropyran-4-yl]-2-[2-(4-fluoro-3,5-dimethyl-phenyl)-3-[3-(5-fluorophthalazin-6-yl)-2-oxo-imidazol-1-yl]-4,6,7,8-tetrahydropyrazolo[4,3-c]azepine-5-carbonyl]indol-1-yl]-2-methyl-cyclopropyl]-4H-1,2,4-oxadiazol-5-one], the EC50 amounted to 197 nM.

As to `Cc1cc(-n2nc3c(c2-n2ccn(-c4ccc5c(cnn5C)c4F)c2=O)C2CCC(CC3)N2C(=O)c2cc3cc([C@H]4CCOC(C)(C)C4)ccc3n2[C@@]2(c3noc(=O)[nH]3)C[C@@H]2C)cc(C)c1F` (stereo partly drawn) [Compound 522, 3-[(1S,2S)-1-[5-[(4S)-2,2-dimethyltetrahydropyran-4-yl]-2-[4-(4-fluoro-3,5-dimethyl-phenyl)-3-[3-(4-fluoro-1-methyl-indazol-5-yl)-2-oxo-imidazol-1-yl]-4,5,12-triazatricyclo[7.2.1.02,6]dodeca-2,5-diene-12-carbonyl]indol-1-yl]-2-methyl-cyclopropyl]-4H-1,2,4-oxadiazol-5-one], the EC50 was at least 10000 nM.

Turning to `Cc1cc(-n2nc3c(c2-n2ccn(-c4ccc5c(cnn5C)c4F)c2=O)[C@@H]2CC[C@H](CC3)N2C(=O)c2cc3cc([C@H]4CCOC(C)(C)C4)ccc3n2[C@@]2(c3noc(=O)[nH]3)C[C@@H]2C)cc(C)c1F` [Compound 523, 3-[(1S,2S)-1-[5-[(4S)-2,2-dimethyltetrahydropyran-4-yl]-2-[(1S,9R)-4-(4-fluoro-3,5-dimethyl-phenyl)-3-[3-(4-fluoro-1-methyl-indazol-5-yl)-2-oxo-imidazol-1-yl]-4,5,12-triazatricyclo[7.2.1.02,6]dodeca-2,5-diene-12-carbonyl]indol-1-yl]-2-methyl-cyclopropyl]-4H-1,2,4-oxadiazol-5-one], the EC50 is 617 nM.

Take `Cc1cc(-n2nc3c(c2-n2ccn(-c4ccc5c(cnn5C)c4F)c2=O)[C@H]2CC[C@@H](CC3)N2C(=O)c2cc3cc([C@H]4CCOC(C)(C)C4)ccc3n2[C@@]2(c3noc(=O)[nH]3)C[C@@H]2C)cc(C)c1F` [Compound 524, 3-[(1S,2S)-1-[5-[(4S)-2,2-dimethyltetrahydropyran-4-yl]-2-[(1R,9S)-4-(4-fluoro-3,5-dimethyl-phenyl)-3-[3-(4-fluoro-1-methyl-indazol-5-yl)-2-oxo-imidazol-1-yl]-4,5,12-triazatricyclo[7.2.1.02,6]dodeca-2,5-diene-12-carbonyl]indol-1-yl]-2-methyl-cyclopropyl]-4H-1,2,4-oxadiazol-5-one]: the EC50 was at least 10000 nM.

As to `Cc1cc(-n2nc3c(c2-n2ccn(-c4ccc5c(cnn5C)c4F)c2=O)[C@@H]2CC[C@H](C3)N2S(=O)(=O)c2cc3cc([C@H]4CCOC(C)(C)C4)ccc3n2[C@@]2(c3noc(=O)[nH]3)C[C@@H]2C)cc(C)c1F` [Compound 525, 3-[(1S,2S)-1-[5-[(4S)-2,2-dimethyltetrahydropyran-4-yl]-2-[[(1S,8R)-4-(4-fluoro-3,5-dimethyl-phenyl)-3-[3-(4-fluoro-1-methyl-indazol-5-yl)-2-oxo-imidazol-1-yl]-4,5,11-triazatricyclo[6.2.1.02,6]undeca-2,5-dien-11-yl]sulfonyl]indol-1-yl]-2-methyl-cyclopropyl]-4H-1,2,4-oxadiazol-5-one], the EC50 turned out to be 58.4 nM.

In the case of `Cc1cc(-n2nc3c(c2-n2ccn(-c4ccc5c(cnn5C)c4F)c2=O)[C@@H]2COC[C@H](C3)N2S(=O)(=O)c2cc3cc(C4CCOCC4)ccc3n2[C@@]2(c3noc(=O)[nH]3)C[C@@H]2C)cc(C)c1F` [Compound 526, 3-[(1S,2S)-1-[2-[[(1R,8S)-4-(4-fluoro-3,5-dimethyl-phenyl)-3-[3-(4-fluoro-1-methyl-indazol-5-yl)-2-oxo-imidazol-1-yl]-10-oxa-4,5,12-triazatricyclo[6.3.1.02,6]dodeca-2,5-dien-12-yl]sulfonyl]-5-tetrahydropyran-4-yl-indol-1-yl]-2-methyl-cyclopropyl]-4H-1,2,4-oxadiazol-5-one], the EC50 came to 1130 nM.

In the case of `Cc1cc(-n2nc3c(c2-n2ccn(-c4ccc5c(cnn5C)c4F)c2=O)[C@@H]2CCC[C@H](C3)N2S(=O)(=O)c2cc3cc([C@H]4CCOC(C)(C)C4)ccc3n2C2(c3noc(=O)[nH]3)C[C@@H]2C)cc(C)c1F` (stereo partly drawn) [Compound 527, 3-[(2S)-1-[5-[(4S)-2,2-dimethyltetrahydropyran-4-yl]-2-[[(1S,8R)-4-(4-fluoro-3,5-dimethyl-phenyl)-3-[3-(4-fluoro-1-methyl-indazol-5-yl)-2-oxo-imidazol-1-yl]-4,5,12-triazatricyclo[6.3.1.02,6]dodeca-2,5-dien-12-yl]sulfonyl]indol-1-yl]-2-methyl-cyclopropyl]-4H-1,2,4-oxadiazol-5-one], the EC50 came out at 975 nM.

Turning to `Cc1cc(-n2nc3c(c2-n2ccn(-c4ccc5c(cnn5C)c4F)c2=O)[C@@H]2CC[C@H](C3)N2C(=O)c2cc3cc([C@H]4CCOC5(CC5)C4)ccc3n2[C@]2(c3noc(=O)[nH]3)C[C@@H]2C)cc(C)c1F` [Compound 528, 3-[(1R,2S)-1-[2-[(1S,8R)-4-(4-fluoro-3,5-dimethyl-phenyl)-3-[3-(4-fluoro-1-methyl-indazol-5-yl)-2-oxo-imidazol-1-yl]-4,5,11-triazatricyclo[6.2.1.02,6]undeca-2,5-diene-11-carbonyl]-5-[(7S)-4-oxaspiro[2.5]octan-7-yl]indol-1-yl]-2-methyl-cyclopropyl]-4H-1,2,4-oxadiazol-5-one], the EC50 came out at 1440 nM.

For the compound `Cc1cc(-n2nc3c(c2-n2ccn(-c4ccc5c(cnn5C)c4F)c2=O)[C@@H]2CC[C@H](C3)N2C(=O)c2cc3cc([C@@H]4CCOC5(CC5)C4)ccc3n2[C@]2(c3noc(=O)[nH]3)C[C@@H]2C)cc(C)c1F` [Compound 529, 3-[(1R,2S)-1-[2-[(1S,8R)-4-(4-fluoro-3,5-dimethyl-phenyl)-3-[3-(4-fluoro-1-methyl-indazol-5-yl)-2-oxo-imidazol-1-yl]-4,5,11-triazatricyclo[6.2.1.02,6]undeca-2,5-diene-11-carbonyl]-5-[(7R)-4-oxaspiro[2.5]octan-7-yl]indol-1-yl]-2-methyl-cyclopropyl]-4H-1,2,4-oxadiazol-5-one], the EC50 was at least 10000 nM.

With `Cc1cc(-n2nc3c(c2-n2ccn(-c4ccc5c(cnn5C)c4F)c2=O)[C@H]2CC[C@@H](C3)N2C(=O)c2cc3cc([C@@H]4CCOC5(CC5)C4)ccc3n2[C@]2(c3noc(=O)[nH]3)C[C@@H]2C)cc(C)c1F` [Compound 530, 3-[(1R,2S)-1-[2-[(1R,8S)-4-(4-fluoro-3,5-dimethyl-phenyl)-3-[3-(4-fluoro-1-methyl-indazol-5-yl)-2-oxo-imidazol-1-yl]-4,5,11-triazatricyclo[6.2.1.02,6]undeca-2,5-diene-11-carbonyl]-5-[(7R)-4-oxaspiro[2.5]octan-7-yl]indol-1-yl]-2-methyl-cyclopropyl]-4H-1,2,4-oxadiazol-5-one], the EC50 is at least 10000 nM.

As to `Cc1cc(-n2nc3c(c2-n2ccn(-c4ccc5c(cnn5C)c4F)c2=O)[C@H]2CC[C@@H](C3)N2C(=O)c2cc3cc([C@H]4CCOC5(CC5)C4)ccc3n2[C@]2(c3noc(=O)[nH]3)C[C@@H]2C)cc(C)c1F` [Compound 531, 3-[(1R,2S)-1-[2-[(1R,8S)-4-(4-fluoro-3,5-dimethyl-phenyl)-3-[3-(4-fluoro-1-methyl-indazol-5-yl)-2-oxo-imidazol-1-yl]-4,5,11-triazatricyclo[6.2.1.02,6]undeca-2,5-diene-11-carbonyl]-5-[(7S)-4-oxaspiro[2.5]octan-7-yl]indol-1-yl]-2-methyl-cyclopropyl]-4H-1,2,4-oxadiazol-5-one], the EC50 was at least 10000 nM.
